These results are taken from PubChem BioAssay (NCI).

SMILES strings stand for the structures.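 Values below derive from 48-hour exposures of cells grown in 96-well plates, with endpoints linearly interpolated between the two concentrations bracketing the appropriate inhibition level. Here, GI50 denotes the concentration required for 50% inhibition of growth. TGI is the concentration that stops growth completely.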

Holding throughout (assay): growth of human tumour cells (NCI), 48 h
In assay [1] the test system is SNB-19 CNS.
The subject of assay [2] is NCI-H23 lung.
For assay [3], the system named is K-562 leukemia.
Assay [4] concerns HOP-62 NSCLC.
Assay [5] has as its system SN12C renal.
In assay [6] the test system is EKVX NSCLC.
Assay [7] deals with IGROV1 ovarian.
Assay [8] concerns UACC-257 melanoma.

As to `Cc1cn2c(/C=N/Nc3ccccn3)c(-c3ccc(Cl)c([N+](=O)[O-])c3)nc2s1`, the GI50 was 12.4 µM in assay [1]; 10.9 µM in assay [2]; 26.7 µM in assay [3]; 10.7 µM in assay [4]; 14.3 µM in assay [5]; 21.6 µM in assay [6]. Further, the GI50 in assay [7] is 5.62 µM; in assay [8], 21.3 µM. The TGI in assay [1] was 32.7 µM; in assay [2], 27.2 µM; in assay [3], above 50 µM; in assay [4], 18.9 µM; in assay [5], 42.4 µM; in assay [6], above 50 µM. Moreover, the figures for the TGI in assay [7] and in assay [8] were 21.8 µM and above 50 µM, respectively.
As for `N#Cc1cc([N+](=O)[O-])ccc1NC(=O)/C(=N/N)C(C(=O)c1ccc(Cl)c(Cl)c1)C1OC(=O)c2ccccc21` (centres undefined), the TGI in assay [1], in assay [2], in assay [3], in assay [4], in assay [5] and in assay [6] was above 100 µM throughout. Besides, the TGI in assay [7] and in assay [8] was above 100 µM each time.
As for `Nc1ccc(-c2ccc(N)cc2I)c(I)c1`, the GI50 was 19 µM in assay [1]; 17.8 µM in assay [2]; 5.89 µM in assay [3]; 17.5 µM in assay [4]; 19.7 µM in assay [5]; 19.1 µM in assay [6]. Moreover, the GI50 in assay [7] is 13.9 µM; in assay [8], 21.5 µM. In addition, the TGI in assay [1] was 77.3 µM; in assay [2], 43.1 µM; in assay [3] it was 39.1 µM; in assay [4] it was 39.4 µM; in assay [5], 55.8 µM; in assay [6], 70.1 µM. The TGI was 56.1 µM in assay [7] and 53.8 µM in assay [8].
On to `CSc1ccccc1C#Cc1ccccc1C#CCCCCO`, for which the GI50 was 17.8 µM in assay [1]; 15.7 µM in assay [2]; 6.19 µM in assay [3]; 24.9 µM in assay [4]; 16 µM in assay [5]; 16.9 µM in assay [6]. Besides, the GI50 in assay [7] was 14 µM; in assay [8] it was 18.5 µM. Also, the TGI is 33.5 µM in assay [1]; 33 µM in assay [2]; 54.4 µM in assay [3]; above 100 µM in assay [4]; 30.7 µM in assay [5]; 34.4 µM in assay [6]. Also, the TGI was 27.5 µM in assay [7] and 34.2 µM in assay [8].
As for `S=C(Nc1cc(Cl)c(Cl)cc1Cl)SCc1ccccc1`, the TGI is 96.9 µM in assay [1]; 45.3 µM in assay [2]; 45.1 µM in assay [3]; 56 µM in assay [4]; above 100 µM in assay [5]; above 100 µM in assay [6]. Moreover, the figures for the TGI in assay [7] and in assay [8] were above 100 µM and 37.6 µM, respectively.
For `Clc1nc(Cl)c(-c2ccccc2)c(Cl)n1`, the TGI was 28.5 µM in assay [1]; 12 µM in assay [2]; above 35 µM in assay [3]; 33 µM in assay [4]; 8.84 µM in assay [5]; 3.46 µM in assay [6]. The TGI in assay [7] was 14 µM; in assay [8], 7.65 µM.
With `O=C(CN(/C=C/C(=O)C(F)(F)F)c1ccccc1)c1ccc(Cl)c(Cl)c1`, the GI50 was 20.3 µM in assay [1]; 13.6 µM in assay [2]; 15.7 µM in assay [3]; 28.3 µM in assay [4]; 15.1 µM in assay [5]; 13.5 µM in assay [6]. Moreover, the GI50 in assay [7] was 5.76 µM; in assay [8], 13.4 µM. Besides, the TGI is 46.4 µM in assay [1]; 26.7 µM in assay [2]; 37.6 µM in assay [3]; above 100 µM in assay [4]; 28.3 µM in assay [5]; 28.8 µM in assay [6]. For the same compound, the values for the TGI in assay [7] and in assay [8] were 19.7 µM and 27.4 µM, respectively.
With `CC12CC(OC(=O)[C@]1(C)O)[C@@H]([C@]1(O)CC[C@H]3[C@@H]4C[C@H]5O[C@]56[C@@H](O)C=CC(=O)[C@]6(C)[C@H]4CC[C@@]31C)C2` (some centres undefined), the TGI is above 100 µM in assay [1]; 14.4 µM in assay [2]; 13.8 µM in assay [3]; above 100 µM in assay [4]; 20.5 µM in assay [5]; 9.94 µM in assay [6]. For the same compound, the results for the TGI in assay [7] and in assay [8] were 35.1 µM and 28.4 µM, respectively.
Take `CC(C)C[C@H](NC(=O)[C@@H](O)[C@H](N)Cc1ccc([N+](=O)[O-])cc1)C(=O)O`: the GI50 in assay [1], in assay [2], in assay [3], in assay [4], in assay [6] and in assay [7] was above 25 µM each time. Also, the GI50 in assay [8] is above 25 µM. Besides, the TGI in assay [1], in assay [2], in assay [3], in assay [4], in assay [6] and in assay [7] was above 25 µM each time. This compound yielded a TGI in assay [8] above 25 µM.
Take `CC(C)N1C(NNC(=O)c2cnccn2)=NS(=O)(=O)c2ccccc21`: the GI50 in assay [1], in assay [2], in assay [3], in assay [5], in assay [6] and in assay [7] was above 100 µM in each case. The GI50 in assay [8] was above 100 µM. The TGI in assay [1], in assay [2], in assay [3], in assay [5], in assay [6] and in assay [7] was above 100 µM in each case. For the same compound, the TGI in assay [8] was above 100 µM.
